Source: patent publication US20110142884A1, “Materials and Methods for Making Improved Micelle Compositions” (The Board of Trustees of the University of Illinois, priority 2002, published 2011)
≈ marks a conversion by molar mass, not a printed value.

What was measured:
[1] = system: human breast cancer cells (MCF-7); test: In vitro cytotoxic activity, sulforhodamine B; conditions: three days incubation
Protocol: The cytotoxic activity of paclitaxel in SSMM, SSM and dimethyl sulfoxide (10% DMSO) was determined against human breast cancer cells (MCF-7; ATCC # HTB-22). The cell line was maintained in RPMI 1640 medium containing 10% fetal bovine serum and 1.0% antibiotics (penicillin and streptomycin), in a 5% carbon dioxide humidified atmosphere at 37° C. Optimum solutions of paclitaxel-SSM and paclitaxel-SSMM chosen from the solubilization studies were used as the test solutions. A 10% dimethyl sulfoxide (DMSO) solution of paclitaxel was also tested as a control. […]
Briefly, samples were prepared as described earlier and serial dilutions were made to obtain paclitaxel concentrations ranging from 0.0013 to 4 μg/ml using the respective solvent that is either HEPES buffer or 10% DMSO. […] Each sample was evaluated in triplicate. […] The optical density was then read at 515 nm. The optical density readings obtained for the solvent controls were used to define 100% growth after correcting for the value obtained for the zero day control. These values were then expressed as a % survival and ED50 values calculated using non-linear regression analysis (percent survival versus concentration).
All the data are expressed as means±standard deviation (SD). […] ED50 values were calculated for each formulation and compared statistically using one-way analysis of variance. […]

physchem = conditions: pH 7.4, aqueous with cosolvent or surfactant or cyclodextrin, thermodynamic from solid, paclitaxel solubilized by SSMM
Protocol: Solubilization potential of both micelle compositions for a model drug was measured by HPLC after separation of the unincorporated drug.
Excess drug was removed by centrifugation and the supernatant was analyzed by HPLC. […] HPLC eluent was measured with adsorption at 254 nm.
According to this example, micelle compositions of the invention were further characterized. Particularly, the physiochemical properties of sterically stabilized micelles prepared with DSPE conjugated to molecular weight 2000, 3000, and 5000 PEG were analyzed. The critical micelle concentration (CMC) of phospholipids was determined at pH 7.4 and 25° C. using a water-insoluble fluorescent probe (1,6-diphenyl-1,3,5-hexatriene). Micellar size was determined by quasi-elastic light scattering.
The solvent was then removed by vacuum rotary evaporation under a stream of argon to form a dry film. This dry film was further dried under vacuum overnight to remove any traces of remaining solvent. The dried film was rehydrated with isotonic 0.01M HEPES buffer, pH 7.4. The solution was then flushed with argon, sealed and equilibrated for 12 h at room temperature. The unsolubilized excess paclitaxel was removed by centrifugation at 13,000 g for 5 min to obtain a clear dispersion.
The solubilization potentials of SSMM and SSM for paclitaxel were determined by RP-HPLC. The clear aqueous dispersion was diluted with methanol. 20 μl of each sample was injected at least three times into a μBondapak C-18 column, 3.9 mm×30 cm (Waters, Milford, Mass.) equipped with a C18 column guard. The column was eluted with acetonitrile/water (60:40) at 1.0 ml/min (Waters 600). Detection was by UV absorption measurement at 227 nm (Waters 490). Peak areas were calculated by interfacing the detector to an electronic integrator (Hewlett Packard). The drug concentration was calculated from standard curves.

solubility at 12 h (physchem): 1320 ± 48 µg/mL (≈ 1550 µM)
SMILES: CC(=O)O[C@H]1C(=O)[C@@]2(C)[C@H]([C@H](OC(=O)c3ccccc3)[C@]3(O)C[C@H](OC(=O)[C@H](O)[C@@H](NC(=O)c4ccccc4)c4ccccc4)C(C)=C1C3(C)C)[C@]1(OC(C)=O)CO[C@@H]1C[C@@H]2O [paclitaxel]
cytotoxic activity against MCF-7 cells [1]: comparable cytotoxic activities
